For 16 molecules, inhibition and IC50 results are on record in patent US8084621B2, “3-Pyrrolo[b]cyclohexylene-2-dihydroindolinone derivatives and uses thereof” (Jiangsu Simcere Pharmaceutical R&D Co. Ltd., priority 2006, dated 2011).

Molecules are shown by their SMILES.

Common to all, as to format: cell-based
In assay [1] the test system is Human Ovarian Cancer Cell Line (SK-OV-3). In words: Tumor cell proliferation assay (MTT), SK-OV-3. The following applies: for inhibition at 10 µM: concentration of 10^−5 mol/L, preliminary screening, 72 hours, read-out: Inhibition rate % SK-OV-3; for IC50: secondary screening, 48 hours.
The test system of assay [2] is Human Colon Cancer Cell Line (HT-29). In words: Tumor cell proliferation assay (MTT), HT29. The following applies: for inhibition at 10 µM: concentration of 10^−5 mol/L, preliminary screening, 72 hours, read-out: Inhibition rate % HT29; for IC50: secondary screening, 48 hours.
For assay [3], the system named is Human Non-Small Cell Lung Cancer Cell Line (A549). In words: Tumor cell proliferation assay (MTT), A549. The note with it: for inhibition at 10 µM: concentration of 10^−5 mol/L, preliminary screening, 72 hours, read-out: Inhibition rate % A549; for IC50: secondary screening, 48 hours. An outline of the steps:
A

In assay [4] the test system is Human Pancreatic Carcinoma Cell Line (BXPC-3). In words: Tumor cell proliferation assay (MTT), BXPC-3. The note with it: for inhibition at 10 µM: concentration of 10^−5 mol/L, preliminary screening, 72 hours, read-out: Inhibition rate % BXPC-3; for IC50: secondary screening, 48 hours.

Broadly, the inhibition is the relative decrease from the control value, in per cent. One may read the IC50 as the concentration that gives 50% inhibition. As for `CCN(CC)CCNC(=O)c1c(C)[nH]c2c1CCC/C2=C1/C(=O)Nc2ccc(F)cc21` [I-2, N-(2-(diethylamino)ethyl)-2-methyl-7-[1,2-dihydro-5-fluoro-2-oxo-3H-indol-(Z)-3-ylidene]-4,5,6,7-tetrahydro-1H-indole-3-carboxamide], the inhibition at 10 µM is 92.2% in assay [1], 97.4% in assay [2], 10.2% in assay [3] and 79.4% in assay [4]. The IC50 turned out to be 1.2 µM in assay [2] and 0.52 µM in assay [4].
For the molecule `CCN(CC)CCNC(=O)c1c(C)[nH]c2c1CCC/C2=C1/C(=O)Nc2ccc(Cl)cc21` [I-3, N-(2-(diethylamino)ethyl)-2-methyl-7-[1,2-dihydro-5-chloro-2-oxo-3H-indol-(Z)-3-ylidene]-4,5,6,7-tetrahydro-1H-indole-3-carboxamide], the inhibition at 10 µM in assay [1] was 86.7%; in assay [2] it was 65.1%; in assay [3], 55.5%; in assay [4], 96%. In addition, the IC50 in assay [1] was determined as 2.99 µM; in assay [2] it was 6.48 µM; in assay [3], 4.95 µM; in assay [4] it was 1.95 µM.
Regarding `CCN(CC)CCNC(=O)c1c(C)[nH]c2c1CCC/C2=C1/C(=O)Nc2ccc(C)cc21` [I-4, N-(2-(diethylamino)ethyl)-2-methyl-7-[1,2-dihydro-5-methyl-2-oxo-3H-indol-(Z)-3-ylidene]-4,5,6,7-tetrahydro-1H-indole-3-carboxamide], the inhibition at 10 µM in assay [1] worked out at 57.1%; in assay [2] it was 89.9%; in assay [3], 67.5%; in assay [4] it was 78.4%. Further, the IC50 in assay [1] was 5.27 µM; in assay [3], 1.01 µM.
For the molecule `CCN(CC)CCNC(=O)c1c(C)[nH]c2c1CCC/C2=C1/C(=O)Nc2ccccc21` [I-5, N-(2-(diethylamino)ethyl)-2-methyl-7-[1,2-dihydro-2-oxo-3H-indol-(Z)-3-ylidene]-4,5,6,7-tetrahydro-1H-indole-3-carboxamide], the inhibition at 10 µM is 77.5% in assay [1], 91.5% in assay [2], 6.71% in assay [3] and 89.4% in assay [4]. The figures for the IC50 in assay [2] and in assay [4] were 0.54 µM and 0.52 µM, respectively.
As to `Cc1[nH]c2c(c1C(=O)NCCN(C)C)CCC/C2=C1/C(=O)Nc2ccc(F)cc21` [I-6, N-(2-(dimethylamino)ethyl)-2-methyl-7-[1,2-dihydro-5-fluoro-2-oxo-3H-indol-(Z)-3-ylidene]-4,5,6,7-tetrahydro-1H-indole-3-carboxamide], the inhibition at 10 µM in assay [1] stood at 32.2%; in assay [2], 61.9%; in assay [4] it was 64.9%. Moreover, the IC50 turned out to be 4.38 µM in assay [2] and 5.99 µM in assay [4].
Consider `Cc1[nH]c2c(c1C(=O)NCCCN(C)C)CCC/C2=C1/C(=O)Nc2ccc(Cl)cc21` [I-7, N-(3-(dimethylamino)propyl)-2-methyl-7-[1,2-dihydro-5-chloro-2-oxo-3H-indol-(Z)-3-ylidene]-4,5,6,7-tetrahydro-1H-indole-3-carboxamide], for which the inhibition at 10 µM in assay [1] was 63.3%; in assay [2], 78.4%; in assay [4] it was 69.5%. The IC50 in assay [1] turned out to be 3.04 µM; in assay [2] it was 3.06 µM; in assay [4], 3.43 µM.
As for `Cc1[nH]c2c(c1C(=O)NCCO)CCC/C2=C1/C(=O)Nc2ccccc21` [I-8, N-(2-hydroxyethyl)-2-methyl-7-[1,2-dihydro-2-oxo-3H-indol-(Z)-3-ylidene]-4,5,6,7-tetrahydro-1H-indole-3-carboxamide], the inhibition at 10 µM in assay [1] was 38.1%; in assay [2], 84.8%; in assay [3], 0.24%; in assay [4], 74.9%. This molecule also had an IC50 in assay [4] of 1.17 µM.
On to `Cc1[nH]c2c(c1C(=O)NCCO)CCC/C2=C1/C(=O)Nc2ccc(F)cc21` [I-9, N-(2-hydroxyethyl)-2-methyl-7-[1,2-dihydro-5-fluoro-2-oxo-3H-indol-(Z)-3-ylidene]-4,5,6,7-tetrahydro-1H-indole-3-carboxamide], for which the results for the inhibition at 10 µM in assay [2], in assay [3] and in assay [4] were 66.7%, 16.3% and 63.7%, respectively.
`Cc1[nH]c2c(c1C(=O)N1CCN(C)CC1)CCC/C2=C1/C(=O)Nc2ccc(F)cc21` [I-14, 2-methyl-3-(4-methylpiperazine-1-carbonyl)-7-[1,2-dihydro-5-fluoro-2-oxo-3H-indol-(Z)-3-ylidene]-4,5,6,7-tetrahydro-1H-indole]: the inhibition at 10 µM was found to be 43.3% in assay [2], 4.43% in assay [3] and 68.3% in assay [4].
Regarding `CCN(CC)CC(O)CNC(=O)c1c(C)[nH]c2c1CCC/C2=C1/C(=O)Nc2ccccc21` (centres unmarked) [I-63, N-(3-(diethylamino)-2-hydroxypropyl)-2-methyl-7-[1,2-dihydro-2-oxo-3H-indol-(Z)-3-ylidene]-4,5,6,7-tetrahydro-1H-indole-3-carboxamide], the inhibition at 10 µM was found to be 94% in assay [1], 92.7% in assay [2], 61.8% in assay [3] and 97.3% in assay [4]. The IC50 in assay [1] worked out at 1.35 µM; in assay [2] it was 1.02 µM; in assay [3] it was 2.01 µM; in assay [4], 1.16 µM.
As to `Cc1[nH]c2c(c1C(=O)NCC(O)CN1CCOCC1)CCC/C2=C1/C(=O)Nc2ccc(F)cc21` (centres unmarked) [I-68, N-(2-hydroxy-3-morpholinopropyl)-2-methyl-7-[1,2-dihydro-5-fluoro-2-oxo-3H-indol-(Z)-3-ylidene]-4,5,6,7-tetrahydro-1H-indole-3-carboxamide], the inhibition at 10 µM in assay [1] is 11.1%; in assay [2], 31.3%; in assay [3] it was 61.1%; in assay [4], 60.7%. The IC50 in assay [3] stood at 5.49 µM; in assay [4], 6.49 µM.
For the molecule `Cc1[nH]c2c(c1C(=O)NCC(O)CN1CCCC1)CCC/C2=C1/C(=O)Nc2ccccc21` (centres unmarked) [I-70, N-(2-hydroxy-3-(pyrrolidin-1-yl)propyl)-2-methyl-7-[1,2-dihydro-2-oxo-3H-indol-(Z)-3-ylidene]-4,5,6,7-tetrahydro-1H-indole-3-carboxamide], the inhibition at 10 µM in assay [1] came out at 95.6%; in assay [2] it was 94.7%; in assay [3] it was 76.3%; in assay [4], 98.7%. In addition, the IC50 in assay [1] is 1.14 µM; in assay [2] it was 0.93 µM; in assay [3], 1.03 µM; in assay [4] it was 0.97 µM.
As for `Cc1[nH]c2c(c1C(=O)NCC(O)CN1CCCC1)CCC/C2=C1/C(=O)Nc2ccc(F)cc21` (centres unmarked) [I-71, N-(2-hydroxy-3-(pyrrolidin-1-yl)propyl)-2-methyl-7-[1,2-dihydro-5-fluoro-2-oxo-3H-indol-(Z)-3-ylidene]-4,5,6,7-tetrahydro-1H-indole-3-carboxamide], the inhibition at 10 µM in assay [1] amounted to 91.7%; in assay [2], 95%; in assay [3] it was 71.7%; in assay [4] it was 98.9%. Also, the IC50 was determined as 1.54 µM in assay [1], 0.79 µM in assay [2], 2.35 µM in assay [3] and 2.73 µM in assay [4].
As for `Cc1[nH]c2c(c1C(=O)NCC(O)CN1CCCCC1)CCC/C2=C1/C(=O)Nc2ccccc21` (centres unmarked) [I-73, N-(2-hydroxy-3-(piperidin-1-yl)propyl)-2-methyl-7-[1,2-dihydro-2-oxo-3H-indol-(Z)-3-ylidene]-4,5,6,7-tetrahydro-1H-indole-3-carboxamide], the inhibition at 10 µM in assay [1] was 71.9%; in assay [2] it was 95.6%; in assay [3] it was 2.54%; in assay [4], 90.2%. Further, the IC50 was determined as 0.64 µM in assay [2] and 1.24 µM in assay [4].
With `Cc1[nH]c2c(c1C(=O)NCC(O)CN1CCCCC1)CCC/C2=C1/C(=O)Nc2ccc(F)cc21` (centres unmarked) [I-74, N-(2-hydroxy-3-(piperidin-1-yl)propyl)-2-methyl-7-[1,2-dihydro-5-fluoro-2-oxo-3H-indol-(Z)-3-ylidene]-4,5,6,7-tetrahydro-1H-indole-3-carboxamide], the inhibition at 10 µM is 88.2% in assay [1], 92.2% in assay [2], 1.27% in assay [3] and 32.1% in assay [4]. Further, the results for the IC50 in assay [2] and in assay [4] were 0.42 µM and 0.24 µM, respectively.
With `Cc1[nH]c2c(c1C(=O)NCC(O)CN1CCN(C)CC1)CCC/C2=C1/C(=O)Nc2ccc(F)cc21` (centres unmarked) [I-77, N-[2-hydroxy-3-(4-methylpiperazin-1-yl)propyl]-2-methyl-7-[1,2-dihydro-5-fluoro-2-oxo-3H-indol-(Z)-3-ylidene]-4,5,6,7-tetrahydro-1H-indole-3-carboxamide], the inhibition at 10 µM stood at 77.3% in assay [1], 74.4% in assay [2], 50.8% in assay [3] and 45.9% in assay [4]. For the same molecule, the IC50 amounted to 6.4 µM in assay [1], 8.38 µM in assay [2], 7.12 µM in assay [3] and 8.7 µM in assay [4].
